# Data reported in patent US10633407B2, “14-membered ketolides and methods of their preparation and use” (President and Fellows of Harvard College, priority 2014, dated 2020).
# Experiments:
# Assay type in all cases: cell-based
# [1] = system: S. pneumoniae mef A genotype (first strain so labelled); test: CLSI broth dilution MIC determination; settings: Streptococcus pneumoniae, first strain (MP-626 UNT-038)
# Summary of the method: (§1)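 Compounds are serially diluted in broth per CLSI standard methods to give the MIC; azithromycin and solithromycin act as comparator macrolides in many cases, and resistance genotypes may be inducible or constitutive.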
# [2] = system: strains of B. subtilis, E. coli, S. aureus, S. pneumoniae, and H. influenzae, including several multidrug-resistant strains; test: CLSI broth dilution MIC determination, whole panel of strains; settings: from MIC data, Tables B1-B13
# Source text: MIC data was collected for the novel macrolides that this platform has produced against over 21 unique strains of B. subtilis, E. coli, S. aureus, S. pneumoniae, and H. influenzae, including several multidrug-resistant strains, with a special focus on macrolide resistant mechanisms (vide supra). Azithromycin (Azithro) and Solithromycin (Solithro) were included as a control macrolides in many cases. CLSI standard procedures for broth dilution MIC determination were used. […] These genotypes can be constitutive or inducible.
# [3] = system: E. coli MP-532 clinical-cErmB; test: CLSI broth dilution MIC determination; settings: Escherichia coli
# Summary of the method: as §1
# E. coli MP-541 clinical = test: CLSI broth dilution MIC determination; settings: Escherichia coli, MP541CLINICAL, read-out: MIC
# Summary of the method: as §1
# [4] = system: E. coli MP-9 ATCC25922:tolC; test: CLSI broth dilution MIC determination; settings: Escherichia coli, ATCC25922
# Summary of the method: as §1
# [5] = system: S. aureus (MRSA) MP-513 ST-228 cErm (Clinical-cErm); test: CLSI broth dilution MIC determination; settings: Staphylococcus aureus, read-out: MIC
# Summary of the method: as §1
# [6] = system: S. aureus MP-17 ATCCBAA-977 (BAA 977 iErm); test: CLSI broth dilution MIC determination; settings: Staphylococcus aureus
# Summary of the method: as §1
# P. aeruginosa MP-7 PAO1 = test: CLSI broth dilution MIC determination; settings: Pseudomonas aeruginosa, read-out: MIC
# [7] = system: K. pneumoniae MP-548 clinical; test: CLSI broth dilution MIC determination; settings: Klebsiella pneumoniae, MP548CLINICAL, read-out: MIC
# [8] = system: K. pneumoniae MP-546 Clinical-MDR; test: CLSI broth dilution MIC determination; settings: Klebsiella pneumoniae, read-out: MIC
# [9] = system: A. baumannii MP-577 Clinical-AZT low; test: CLSI broth dilution MIC determination; settings: Acinetobacter baumannii, read-out: MIC
# [10] = system: A. baumannii MP-576 Clinical-MDR; test: CLSI broth dilution MIC determination; settings: Acinetobacter baumannii, read-out: MIC
SMILES,MIC [1],potency compared with solithromycin [2],MIC [3],MIC (E. coli MP-541 clinical),MIC [4],MIC [5],MIC [6],MIC (P. aeruginosa MP-7 PAO1),MIC [7],MIC [8],MIC [9],MIC [10]
CC[C@H]1OC(=O)[C@@](C)(F)C(=O)[C@H](C)[C@@H](O[C@@H]2OC(C)CC(N(C)C)C2O)[C@](C)(OC)C[C@@H](C)C(=O)[C@H](C)[C@H]2N(CC#CCn3cc(-c4cccc(N)c4)nn3)C(=O)O[C@]12C (stereo partly drawn) [FSM-100426],< 0.0312 µg/mL,more potent,,,,,,,,,,
"CC[C@H]1OC(=O)[C@@](C)(F)C(=O)[C@H](C)[C@@H](OC2OC(C)CC(N(C)C)C2O)[C@](C)(OC)C[C@@H](C)C(=O)[C@H](C)[C@H]2N(CCCCn3cc(-c4cccc(N)c4)nn3)C(=O)O[C@]12C (stereo partly drawn) [Solithro, solithromycin, reference compound]",,,> 32 µg/mL,16 µg/mL,4 µg/mL,> 32 µg/mL,0.125 µg/mL,> 32 µg/mL,32 µg/mL,> 32 µg/mL,32 µg/mL,> 32 µg/mL
